Results from US20230331781A1, “PAR4 DERIVED PEPTIDES, ANALOGS AND USES THEREOF” (Yissum Research Development Company of the Hebrew …, priority 2019, published 2023).
Entries after “also recorded” stand apart in the source; their conditions may differ. Numbered stars: 1 amine (or outer) side, 2 acyl side, 3 side chain; on linkers, the order of the positions; unused ones are H or OH. Bridge positions count the residues as written; N and C are the ends. Square brackets hold non-standard residues; d marks the D form. Ends that are not written are not given here. GlyBU(C4) = Gly building unit (N-alpha-functionalized Gly) carrying a C4 alkyl chain (n = m = 4), bridged through a urea group; CO = O=C([*:1])[*:2]

Experiments:
pEGFR = assay: PAR4 induced pEGFR in MDA-MB-231 cells (Western blot); assay type: cell-based, human; conditions: endogenous PAR4 and EGFR, AYPGKF 200 μM, FIG. 17
Method: Activation of PAR4 induces phosphorylation of EGFR. This is seen 15 min following AYPGKF the synthetic hexa peptide application for PAR4 activation. MDA-231 cells were serum starved over night following AYPGKF PAR4 activation (200 μM) for 5-60 min. Detection by Western blot analyses of pY-EGFR and EGFR was performed using either anti-phospho tyrosine or anti EGFR antibodies respectively. PAR4 activation induces EGFR tyrosine phosphorylation within 15 min.
We have performed immunohistochemical (IHC) staining analyses of EGFR in Her2/Neu and TN breast cancer patient tissues. Analyses have indicated the presence of EGFR in both HER2/Neu as also in TN breast cancer tissue biopsy specimen (FIGS. 16A and 16B, respectively). Pc(4-4) Inhibits PAR4 Induced pEGFR in MDA-MB-231 Cells MDA-MB-231 cells were serum starved overnight following AYPGKF PAR4 activation (200 μM) for 5-60 min in the presence and absence of Pc(4-4) (200 μM). Detection by Western blot analyses of pEGFR and EGFR was performed using either anti-phosphotyrosine or anti-EGFR antibodies (1:1000 dilution), respectively. […] AYPGKF activation of PAR4 leads to pTyr-EGFR in MDA-231 cells (see FIG. 17). […] In the presence of Pc(4-4) cyclic peptide (right panel) potently (200 μM) inhibition of the phosphorylation of EGFR is observed (FIG. 17). […]

pY-EGFR = assay: PAR4 induced EGFR tyrosine phosphorylation, HEK293 cells co-transfected with flg-Par4 and gfp-egfr (Western blot); assay type: cell-based, human; conditions: HEK293 cells co-transfected with hPar4 and egfr; AYPGKF 200 μM; 100 μM; FIG. 13B
Method: FIG. 13A—Activation of PAR4 induces phosphorylation of EGFR. HEK293 cells were co-transfected with 0.4 μg of wt flg-Par4 and 0.8 μg of gfp-egfr. Cells were serum starved over night following AYPGKF PAR4 activation (200 μM) for 5-45 min. Detection by Western blot analyses of pY-EGFR and EGFR was performed using either anti-phospho tyrosine or anti EGFR antibodies respectively. PAR4 activation induces EGFR tyrosine phosphorylation within 15 min. FIG. 13B—Pc(4-4) inhibits EGFR phosphorylation. HEK293 cells were co-transfected with 0.8 μg of wt flg-Par4 and 1 μg of gfp-egfr. Cells were serum starved over night following AYPGKF PAR4 activation (200 μM) for 5-45 min in the presence and absence of PAR4 c(4-4) (100 μM). Detection by Western blot analyses of pEGFR and EGFR was performed using either anti-phospho tyrosine or anti EGFR antibodies (1:1000 dilution) respectively. […] FIG. 13C—PAR4 mutants F347L and D349A abolish pTyr-EGFR. HEK293 cells were transiently co-transfected with either flg-Par4 or flg-Par4D349A or flg-hPar4F347L with egfr1 plasmid. Cells were serum starved over night following AYPGKF PAR4 activation (200 μM) for 5-45 min. Detection by Western blot analyses of pY-EGFR and EGFR was performed using either anti-phospho tyrosine or anti-EGFR antibodies respectively. In the presence of flg-Par4 potent pTyr-EGFR1 is observed within 15′ and 30′ AYPGKF activation. […]

Pc(4-4): backbone cyclic analog of Formula I, m=n=4, ring size 30 atoms (S[GlyBU(C4)]EFRDK[GlyBU(C4)]; bridge 2-8 via CO; not fully specified; printed as SZ1EFRDKX3)
inhibition of PAR4 induced phosphorylation of EGFR (pEGFR): potently inhibited
inhibition of PAR4 induced pY-EGFR (pY-EGFR): potent inhibition; also recorded: potently inhibited
